Assay results from ChEMBL document CHEMBL6103545, “Discovery of GS-2278, a Potent and Selective LPAR1 Antagonist for the Treatment of Idiopathic Pulmonary Fibrosis” (J Med Chem, 2025).

Key:
[1] = Plasma protein binding in cynomolgus monkey assessed as unbound fraction at 2 uM incubated for 24 hrs by LC-MS analysis; type: ADME, cell-free, Macaca fascicularis
[2] = Metabolic stability in Beagle dog liver microsomes assessed as intrinsic clearance at 1 uM by LC/MS/MS analysis; type: ADME, Canis lupus familiaris, Microsome; details: read-out: CLH (converted)
[3] = AUC (0 to 24 hrs) in male Sprague-Dawley rat at 5 mg/kg, po measured after 24 hrs by LC/MS/MS analysis; type: ADME, organism-based; details: in vivo
[4] = AUC (0 to 24 hrs) in Beagle dog at 5 mg/kg, po measured after 24 hrs by LC/MS/MS analysis; type: ADME, organism-based, Canis lupus familiaris; details: in vivo
[5] = Oral bioavailability in Beagle dog at 5 mg/kg measured after 24 hrs by LC/MS/MS analysis; type: ADME, organism-based, Canis lupus familiaris; details: in vivo
[6] = Drug metabolism in Beagle dog hepatocyte assessed as (R)-1-(2,5-Difluoropyridin-3-yl)ethyl[4-(5-Aminopyridin-2-yl)-1-methyl-1H-1,2,3-triazol-5-yl]carbamate Hydrochloride metabolite formation at 1 uM by LC/MS/MS analysis; type: ADME, Canis lupus familiaris; details: hepatocytes
[7] = biological target: T1, Lysophosphatidic acid receptor 1 (Homo sapiens, UniProt Q92633); experiment: Antagonist activity at LPA1 receptor in human TWNT-4 cells pre-incubated for 1 hr followed by LPA stimulation and measured after 30 min in presence of 4% human serum albumin by MRTF-A assay; type: cell-based
[8] = biological target: T1, Lysophosphatidic acid receptor 1; experiment: Antagonist activity at human LPA1 receptor overexpressed in CHO cells pre-incubated for 1 hr followed by LPA addition by fluorescence based FLIPR calcium assay; type: functional, cell-based
[9] = biological target: Lysophosphatidic acid receptor 5 (Homo sapiens, UniProt Q9H1C0); experiment: Antagonist activity at human LPA5 receptor overexpressed in CHO cells pre-incubated for 1 hr followed by LPA addition by fluorescence based FLIPR calcium assay; type: functional, cell-based
[10] = biological target: T1, Lysophosphatidic acid receptor 1; experiment: Displacement of [3H]LPA from human LPA1 receptor overexpressed in CHO cell membrane assessed as inhibition constant incubated for 90 min by competitive radioligand binding assay; type: cell membranes
[11] = biological target: T1, Lysophosphatidic acid receptor 1; experiment: Antagonist activity at human LPA1 receptor expressed in HEK293 cells assessed as Galpha13 effector recruitment incubated for 10 mins by BRET assay; type: functional, cell-based
[12] = Apparent permeability from basolateral to apical side in human Caco-2 cells at 10 uM; type: ADME, cell-based
P-gp (human) = experiment: Apparent permeability from apical to basolateral side of human P-gp transfected MDCK cells measured after 20 min by LC/MS/MS analysis; type: ADME, cell-based, Canis lupus familiaris; details: dog, MDCK-MDR1
Bile salt export pump = Bile salt export pump (Homo sapiens, UniProt O95342); experiment: Inhibition of BSEP in human hepatocyte by LC-MS analysis; type: cell-based
[13] = biological target: T2, Solute carrier organic anion transporter family member 1B1 (Homo sapiens, UniProt Q9Y6L6); experiment: Inhibition of OATPB1P1 in human hepatocyte by LC-MS analysis; type: cell-based
T2 sequence (Q9Y6L6 whole entry): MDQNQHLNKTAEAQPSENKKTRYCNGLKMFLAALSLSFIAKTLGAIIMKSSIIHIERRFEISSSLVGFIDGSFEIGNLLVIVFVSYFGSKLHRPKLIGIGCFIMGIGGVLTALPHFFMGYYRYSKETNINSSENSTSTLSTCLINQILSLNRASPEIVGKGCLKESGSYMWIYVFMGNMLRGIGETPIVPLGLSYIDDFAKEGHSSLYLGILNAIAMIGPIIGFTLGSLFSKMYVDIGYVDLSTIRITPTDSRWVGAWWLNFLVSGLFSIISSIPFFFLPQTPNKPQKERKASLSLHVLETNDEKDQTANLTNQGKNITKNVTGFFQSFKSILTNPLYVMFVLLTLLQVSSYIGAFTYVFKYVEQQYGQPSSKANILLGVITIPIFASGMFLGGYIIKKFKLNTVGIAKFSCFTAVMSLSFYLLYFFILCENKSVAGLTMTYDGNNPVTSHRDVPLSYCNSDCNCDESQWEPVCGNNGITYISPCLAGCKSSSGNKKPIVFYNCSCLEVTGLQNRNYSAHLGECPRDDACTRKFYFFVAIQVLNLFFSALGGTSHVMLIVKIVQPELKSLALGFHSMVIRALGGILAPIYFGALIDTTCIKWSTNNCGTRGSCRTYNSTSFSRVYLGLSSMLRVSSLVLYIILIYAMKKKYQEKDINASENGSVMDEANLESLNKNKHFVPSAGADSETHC

Cytochrome P450 2B6 = biological target: T3, Cytochrome P450 2B6 (Homo sapiens, UniProt P20813); experiment: Inhibition of CYP2B6 (unknown origin) using midazolam as substrate; type: ADME
T3 sequence (P20813 whole entry): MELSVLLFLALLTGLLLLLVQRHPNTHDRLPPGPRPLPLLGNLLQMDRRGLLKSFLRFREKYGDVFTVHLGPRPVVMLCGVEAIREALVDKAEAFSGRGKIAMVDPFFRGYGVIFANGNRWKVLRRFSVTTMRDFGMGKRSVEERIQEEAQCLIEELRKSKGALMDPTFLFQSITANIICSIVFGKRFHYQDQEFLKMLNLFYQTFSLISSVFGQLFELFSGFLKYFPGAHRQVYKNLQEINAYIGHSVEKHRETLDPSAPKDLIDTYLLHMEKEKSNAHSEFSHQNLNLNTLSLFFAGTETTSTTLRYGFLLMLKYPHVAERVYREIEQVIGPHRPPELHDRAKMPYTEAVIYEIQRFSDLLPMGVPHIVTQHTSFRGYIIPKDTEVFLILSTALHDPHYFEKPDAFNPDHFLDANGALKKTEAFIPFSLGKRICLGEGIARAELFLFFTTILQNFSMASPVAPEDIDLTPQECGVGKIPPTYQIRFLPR

Cytochrome P450 2C8 = biological target: T4, Cytochrome P450 2C8 (Homo sapiens, UniProt P10632); experiment: Inhibition of CYP2C8 (unknown origin) using midazolam as substrate; type: ADME
T4 sequence (P10632 whole entry): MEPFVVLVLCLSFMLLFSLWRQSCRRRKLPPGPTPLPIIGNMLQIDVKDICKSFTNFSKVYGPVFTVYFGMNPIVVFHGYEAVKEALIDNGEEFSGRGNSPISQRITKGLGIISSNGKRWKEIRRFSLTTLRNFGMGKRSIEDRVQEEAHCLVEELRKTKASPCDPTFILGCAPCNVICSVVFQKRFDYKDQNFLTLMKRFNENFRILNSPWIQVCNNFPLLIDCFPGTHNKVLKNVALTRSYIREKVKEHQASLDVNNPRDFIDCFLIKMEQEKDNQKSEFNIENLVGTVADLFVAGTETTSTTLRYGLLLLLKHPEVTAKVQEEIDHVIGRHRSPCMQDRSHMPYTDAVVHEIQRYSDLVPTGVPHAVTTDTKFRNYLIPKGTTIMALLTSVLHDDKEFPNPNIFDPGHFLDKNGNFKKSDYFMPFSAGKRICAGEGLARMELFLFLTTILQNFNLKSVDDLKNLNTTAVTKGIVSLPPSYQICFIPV

Cytochrome P450 3A = Cytochrome P450 3A (Homo sapiens, UniProt P08684+P20815+Q9HB55+P24462); experiment: Inhibition of CYP3A (unknown origin) using midazolam as substrate; type: ADME, protein assay
[14] = Toxicity in Beagle dog CNS at 20 mg/kg/day, po measured after 28 days by radiotelemetry; type: organism-based, Canis lupus familiaris; details: in vivo, 672 h, time 28 day
[15] = Toxicity in telemetry implanted Beagle dog CNS at 30 mg/kg/day, po measured upto 24 hrs by radiotelemetry based electroencephalogram analysis; type: organism-based, Canis lupus familiaris; details: in vivo

T1 sequence (Q92633 whole entry): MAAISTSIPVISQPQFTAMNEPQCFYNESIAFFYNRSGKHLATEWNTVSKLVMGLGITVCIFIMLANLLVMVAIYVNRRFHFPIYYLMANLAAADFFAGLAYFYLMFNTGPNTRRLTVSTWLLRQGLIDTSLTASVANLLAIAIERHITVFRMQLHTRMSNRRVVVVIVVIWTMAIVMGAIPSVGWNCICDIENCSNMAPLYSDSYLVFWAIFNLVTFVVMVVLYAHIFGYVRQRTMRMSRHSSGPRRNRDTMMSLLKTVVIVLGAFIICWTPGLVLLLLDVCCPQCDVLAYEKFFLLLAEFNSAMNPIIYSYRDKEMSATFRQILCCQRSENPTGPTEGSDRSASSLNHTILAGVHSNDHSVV
Lysophosphatidic acid receptor 5, sequence (Q9H1C0 whole entry): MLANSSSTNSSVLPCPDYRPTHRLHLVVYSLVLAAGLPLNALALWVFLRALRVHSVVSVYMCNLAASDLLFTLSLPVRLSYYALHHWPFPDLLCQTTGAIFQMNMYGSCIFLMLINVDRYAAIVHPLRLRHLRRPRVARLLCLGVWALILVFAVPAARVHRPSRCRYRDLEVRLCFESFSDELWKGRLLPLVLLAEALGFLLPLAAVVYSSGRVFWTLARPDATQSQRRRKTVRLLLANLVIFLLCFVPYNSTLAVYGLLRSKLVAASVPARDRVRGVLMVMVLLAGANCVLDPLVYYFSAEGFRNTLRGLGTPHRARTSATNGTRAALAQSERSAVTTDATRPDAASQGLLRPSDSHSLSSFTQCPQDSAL
Bile salt export pump, sequence (O95342 whole entry): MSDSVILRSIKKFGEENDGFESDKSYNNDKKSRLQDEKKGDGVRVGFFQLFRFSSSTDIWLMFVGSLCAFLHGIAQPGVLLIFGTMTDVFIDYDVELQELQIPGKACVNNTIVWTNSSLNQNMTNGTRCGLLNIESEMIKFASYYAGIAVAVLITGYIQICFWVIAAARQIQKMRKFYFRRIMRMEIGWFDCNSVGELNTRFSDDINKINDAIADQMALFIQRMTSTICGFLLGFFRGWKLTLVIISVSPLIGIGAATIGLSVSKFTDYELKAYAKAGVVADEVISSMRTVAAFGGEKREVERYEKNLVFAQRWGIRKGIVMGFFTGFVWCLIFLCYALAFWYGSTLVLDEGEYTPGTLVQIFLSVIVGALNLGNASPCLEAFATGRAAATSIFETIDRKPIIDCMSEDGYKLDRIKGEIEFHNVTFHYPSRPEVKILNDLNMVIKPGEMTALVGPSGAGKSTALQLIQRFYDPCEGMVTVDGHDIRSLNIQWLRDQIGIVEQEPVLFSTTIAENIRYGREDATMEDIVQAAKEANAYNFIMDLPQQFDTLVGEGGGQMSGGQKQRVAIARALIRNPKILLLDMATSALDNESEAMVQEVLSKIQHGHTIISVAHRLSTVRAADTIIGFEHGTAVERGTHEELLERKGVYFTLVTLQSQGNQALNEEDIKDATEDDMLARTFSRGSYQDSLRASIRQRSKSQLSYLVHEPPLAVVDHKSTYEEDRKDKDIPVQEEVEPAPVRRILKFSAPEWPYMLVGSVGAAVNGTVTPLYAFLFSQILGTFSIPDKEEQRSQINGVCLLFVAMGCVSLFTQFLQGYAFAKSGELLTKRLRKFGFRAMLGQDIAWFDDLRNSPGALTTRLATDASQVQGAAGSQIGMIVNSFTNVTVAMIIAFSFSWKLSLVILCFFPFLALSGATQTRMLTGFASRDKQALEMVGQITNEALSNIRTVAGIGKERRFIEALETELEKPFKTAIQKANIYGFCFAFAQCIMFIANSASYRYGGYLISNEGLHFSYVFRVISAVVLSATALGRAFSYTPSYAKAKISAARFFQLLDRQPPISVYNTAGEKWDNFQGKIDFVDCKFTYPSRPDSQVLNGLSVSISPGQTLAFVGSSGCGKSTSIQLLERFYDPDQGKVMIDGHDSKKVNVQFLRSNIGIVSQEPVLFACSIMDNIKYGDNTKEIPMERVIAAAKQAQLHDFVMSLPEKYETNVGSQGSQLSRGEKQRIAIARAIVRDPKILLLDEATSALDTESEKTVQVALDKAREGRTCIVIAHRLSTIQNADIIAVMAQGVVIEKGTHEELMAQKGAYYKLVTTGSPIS

- fraction unbound at 24 h, 2 µM [1]: 0.24
- CLint scaled at 1 µM [2]: 1.5 mL/min/kg
- AUC(0-t) at 24 h [3]: 5.1 µM·h
- AUC(0-t) at 24 h [4]: 54 µM·h
- bioavailability [5]: 49%
- Drug metabolism [6]: metabolite_detected
- EC50 [7]: 34 nM
- EC50 [8]: 38 nM
- EC50 [9]: > 10 µM
- Ki [10]: 60 nM
- EC50 [11]: 71 nM
- Papp B→A at 10 µM [12]: 17 ×10⁻⁶ cm/s
- Papp A→B at 20 min (P-gp (human)): 0.3 ×10⁻⁶ cm/s
- IC50 [13]: 13 µM
- inhibition (INH) (Cytochrome P450 2B6): Not_active
- inhibition (INH) (Cytochrome P450 2C8): Not_active
- inhibition (INH) (Cytochrome P450 3A): Not_active
SMILES: C[C@@H](OC(=O)Nc1c(-c2ccc(NC(=O)c3cnc(C(F)(F)F)nc3)cn2)nnn1C)c1cc(F)cnc1F
- IC50 (Bile salt export pump): 22 µM
- Activity [14]: Non-toxic
- Activity [15]: Non-toxic
